Measurements as given in ChEMBL document CHEMBL1201862, “PubChem BioAssay data set” (2004).
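Step 1: Grow cells in 96-well plates. Step 2: Expose to compound for 48 hours at 5 concentrations. Step 3: Interpolate endpoints linearly; if unreached, use highest concentration. At the GI50, growth is halved.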 The source made the active and inactive calls. No stated cut-off is given here; in the data, active = GI50 up to about 1.1 µM and inactive = higher.

Columns and labels:
Experiment in all cases: DTP human tumour cell line panel, 48 h
A549 = test system: A549
CAKI-1 = test system: CAKI-1
CCRF-CEM = test system: CCRF-CEM
EKVX = test system: EKVX
HCT-116 = test system: HCT-116
HCT-15 = test system: HCT-15
HOP-92 = test system: HOP-92
HT-29 = test system: HT-29
IGROV-1 = test system: IGROV-1
K562 = test system: K562
M14 = test system: M14
MOLT-4 = test system: MOLT-4
NCI-H226 = test system: NCI-H226
OVCAR-3 = test system: OVCAR-3
OVCAR-4 = test system: OVCAR-4
OVCAR-5 = test system: OVCAR-5
SF-295 = test system: SF-295
SK-MEL-28 = test system: SK-MEL-28
UACC-62 = test system: UACC-62
UO-31 = test system: UO-31

SMILES | GI50 (A549) | GI50 (CAKI-1) | GI50 (CCRF-CEM) | GI50 (EKVX) | GI50 (HCT-116) | GI50 (HCT-15) [µM] | GI50 (HOP-92) | GI50 (HT-29) | GI50 (IGROV-1) | GI50 (K562) | GI50 (M14) | GI50 (MOLT-4) | GI50 (NCI-H226) | GI50 (OVCAR-3) | GI50 (OVCAR-4) | GI50 (OVCAR-5) | GI50 (SF-295) | GI50 (SK-MEL-28) | GI50 (UACC-62) | GI50 (UO-31)
Nc1c(C(=O)Nc2ccc([As](=O)(O)O)cc2)cnc2nnnn12 | > 100 µM (inactive) | > 100 µM (inactive) | > 100 µM (inactive) | > 100 µM (inactive) | > 100 µM (inactive) | > 100 | > 100 µM (inactive) | > 100 µM (inactive) | > 100 µM (inactive) | > 100 µM (inactive) | > 100 µM (inactive) | > 100 µM (inactive) | > 100 µM (inactive) | > 100 µM (inactive) | > 100 µM (inactive) | > 100 µM (inactive) | > 100 µM (inactive) | > 100 µM (inactive) | > 100 µM (inactive) | > 100 µM (inactive)
COc1ccc(OC)c(C(=O)/C=C/c2cc(O)c(O)cc2F)c1 | 9.57 µM (inactive) | 4.71 µM (inactive) | 0.41 µM (active) | 8.04 µM (inactive) | 0.47 µM (active) | 0.076 | 10.1 µM (inactive) | 7.14 µM (inactive) | 1.61 µM (inactive) | 0.356 µM (active) | 0.638 µM (active) | 0.321 µM (active) | 5.24 µM (inactive) | 0.18 µM (active) | 2.29 µM (inactive) | 13 µM (inactive) | 1.33 µM (inactive) | 1.85 µM (inactive) | 0.701 µM (active) | 2.66 µM (inactive)
CCCCCCc1ccc(C(=O)NO)cc1 | 33.8 µM (inactive) | 28.1 µM (inactive) | 6.92 µM (inactive) | 37.8 µM (inactive) | 29.6 µM (inactive) | 12.6 | 48 µM (inactive) | 36 µM (inactive) | 24.5 µM (inactive) | 24.5 µM (inactive) | 35.1 µM (inactive) | 11.7 µM (inactive) | 24.4 µM (inactive) | 30.3 µM (inactive) | 20.4 µM (inactive) | 75 µM (inactive) | 40.6 µM (inactive) | 56.5 µM (inactive) | 24.9 µM (inactive) | 15.7 µM (inactive)
CCOc1ccccc1NC(=O)CC(C(=O)OC)C(=O)C(=O)OC (stereo not given) | > 100 µM (inactive) | > 100 µM (inactive) | > 100 µM (inactive) | > 100 µM (inactive) | > 100 µM (inactive) | > 100 | > 100 µM (inactive) | > 100 µM (inactive) | > 100 µM (inactive) | > 100 µM (inactive) | > 100 µM (inactive) | > 100 µM (inactive) | > 100 µM (inactive) | > 100 µM (inactive) | > 100 µM (inactive) | > 100 µM (inactive) | > 100 µM (inactive) | > 100 µM (inactive) | > 100 µM (inactive) | > 100 µM (inactive)
